Laboratory results: patent US11149017B2, “Solid state forms of apalutamide” (WATSON LABORATORIES INC., priority 2016, dated 2021)

Assays:
[1] = Bulk density and tapped (tap) density of powder; format: physicochemical; conditions: as compared to form A of Apalutamide
Source text: Bulk density as used in the present application is meant the ratio between mass (weight) and bulk volume for the powder blend. Tapped (tap) density is the maximum packing density of a powder (or blend of powders) achieved under the influence of well defined, externally applied forces. The minimum packed volume thus achieved depends on a number of factors including particle size distribution, true density, particle shape and cohesiveness due to surface forces including moisture. Therefore, the tap density of a material can be used to predict both its flow properties and its compressibility. These two parameters are important in the overall tableting process—which requires that loose powders be compacted into a durable solid form with the correct mechanical strength, porosity and dissolution characteristics—and in capsule filling performance.

[2] = Solubility Study (aqueous buffers, dissolution apparatus, LC analysis); format: physicochemical; conditions: compared to other crystalline forms of Apalutamide, e.g. crystalline form B
Experimental: Solubility of Apalutamide was checked using Dissolution apparatus (Lab India D8000) at 37 deg.
Buffers pH. 1.2, 4.5 and 6.8 were prepared as per the USP 36 Solutions/Buffer Solutions 1209.
About 500 mg of Apalutamide were added to the 100 mL buffer (pH 1.2, 4.5 and 6.8) in individual flasks to obtain saturated suspension and the suspension was stirred with 250 rpm for 24 hours. Suspension was observed though out stirring period. Samples were drawn at different intervals on completion of 15 mins, 1 hrs, 4 hrs and 24 hrs from each flask and filtered through 0.45μ PTFE filter; each solution was analyzed for Apalutamide content by liquid chromatography.

| SMILES | bulk density [1] | tap density [1] | aqueous solubility [2] |
| --- | --- | --- | --- |
| CNC(=O)c1ccc(N2C(=S)N(c3cnc(C#N)c(C(F)(F)F)c3)C(=O)C23CCC3)cc1F [form T13, Apalutamide] | higher bulk density | higher tap density | – |
| CNC(=O)c1ccc(N2C(=S)N(c3cnc(C#N)c(C(F)(F)F)c3)C(=O)C23CCC3)cc1F [form T11, Apalutamide] | – | – | higher aqueous solubility |
